Patent US6514732B1, “Process for preparing baccatin” (Indena S.p.A., priority 1998, dated 2003)
Entries after “also recorded” stand apart in the source; their conditions may differ.

Columns and labels:
Format in all cases: biochemical, Taxus chinensis
[1] = test system: acetyl transferase (acetyl CoA 10-hydroxytaxane-O-acetyl transferase); assay: Substrate specificity of the purified acetyl transferase (conversion of taxane substrates with [2-14C]acetyl CoA); details: for Conversion, based on the conversion of 10-deacetyltaxuyunnanin C / pkat (enzyme activity with the substrate): Enzyme: Phenylsepharose eluate (225-fold purified); for acetylation / acceptance as substrate by the enzyme (in words): purified acetyl transferase, acetyl donor acetyl CoA
Description: A sufficient amount of the enzyme solution to be tested was pipetted into 50 μl of tris buffer (0.8 M, pH 8.5) in an Eppendorf cap. 30 μl of purified acetyl CoA (5 nmol of unlabelled and 0.02 μCi-[2-^14C]acetyl coenzyme A) and 15 nmol of a 3 mM stock solution of 10-deacetyltaxuyunnanin C dissolved in DMSO were then added (for the control only the corresponding amount of DMSO instead of this taxane). The mixture was incubated at 35° C. for 30 minutes and then acidified using 20 μl of 12% H2SO4, the taxuyunnanin C formed was extracted using 600 μl of tert-butyl methyl ether (10 min. in an overhead shaker) and the mixture was then centrifuged (4 min at 14,000 rpm in an Eppendorf centrifuge). The unreacted [2-^14C]acetyl CoA which was still present remained in the aqueous phase. 500 μl of the organic phase were evaporated to dryness in a stream of air, which simultaneously removed any [2-^14C]acetic acid present which, owing to the earlier acidification, was present as the acid and was therefore volatile. Using a scintillation counter (Multipurpose Scintillation Counter LS 6500, from Beckmann) or a thin-layer radioscanner (Automatic TLC Linear Analyser, from Berthold), the type and the amount of the product formed were determined. The former apparatus was used to determine the conversion and thus the activity of the enzyme using the cpm values counted. With the aid of thin-layer chromatography (TLC) (mobile phase: chloroform:acetonitrile 7:3) and the subsequent evaluation using a radioscanner, it was possible to check whether the radioactivity measured using the scintillation counter did indeed correspond to a peak in the region of the Rf value of the expected product.
To check the substrate specificity of the purified acetyl transferase, various compounds having a taxane skeleton were used as substrate.
10-DAB is converted with a rate of conversion of 85%, compared to 10-deacetyltaxuyunnanin C to baccatin III.
Conversion of Various Substrates, Based on the Conversion of 10-deacetyltaxuyunnanin C
Enzyme: Phenylsepharose eluate (225-fold purified)

acetyl transferase [2] = assay: KM value determination for 10-deacetyltaxuyunnanin C (Lineweaver-Burk); details: phenylsepharose eluate, 225-fold enriched; 30 min at 35° C., pH 8.5
Description: To gain information about the affinity of the acetyl transferase to 10-deacetyltaxuyunnanin C, the KM value of the phenylsepharose eluate was determined.
100 μl of acetyl-transferase (0.25 pcat, 40 ng of protein, 225-fold enriched)
30 μl of acetyl coenzyme A (5 nmol, additionally containing 0.02 μCi[2-^14C]acetylCoA)
30 min at 35° C.; evaluation of the radioactivity, which had been extracted using tert-butyl methyl ether, using a scintillation counter.
By plotting the measured results in a doubly reciprocal manner according to Lineweaver and Burk, the KM value for 10-deacetyltaxuyunnanin C was determined graphically to be 23 μM.

acetyl transferase [3] = assay: KM value determination for acetyl coenzyme A (Lineweaver-Burk); details: phenylsepharose eluate, 225-fold enriched; 30 min at 35° C., pH 8.5
Description: The affinity of acetyl transferase to acetyl coenzyme A can be described by the KM value, which was determined using the phenylsepharose eluate.
100 μl of acetyl transferase (0.25 pcat, 40 ng of protein, 225-fold enriched)
5 μl of 3 mM 10-deacetyltaxuyunnanin C (15 nmol)
30 min at 35° C. Evaluation was subsequently carried out by extraction with tert-butyl methyl ether and the use of a scintillation counter. By plotting the measured values in a doubly reciprocal manner according to Lineweaver and Burk, the KM value for acetyl coenzyme A was determined at 61 μM.

## 2,10,14-deacetyltaxuyunnanin C [2,10,14-Desacetyltaxuyunnanin C]
[1]
  Conversion, based on the conversion of 10-deacetyltaxuyunnanin C: 81%
  pkat (enzyme activity with the substrate): 0.91 pkat

## 10,14-deacetyltaxuyunnanin C [10,14-Desacetyltaxuyunnanin C]
[1]
  Conversion, based on the conversion of 10-deacetyltaxuyunnanin C: 102%
  pkat (enzyme activity with the substrate): 1.14 pkat

## C=C1C(O)CCC2(C)CC(O)C3=C(C)CC(O)C(C(O)C12)C3(C)C (centres unmarked) [2,5,10,14-Desacetyltaxuyunnanin C, 2,5,10,14-deacetyltaxuyunnanin C]
[1]
  Conversion, based on the conversion of 10-deacetyltaxuyunnanin C: 53%
  pkat (enzyme activity with the substrate): 0.59 pkat

## C=C1C(O)CCC2(C)CC(O)C3=C(C)CC(O)C(C(OC(C)=O)C12)C3(C)C (centres unmarked) [5,10,14-Desacetyltaxuyunnanin C, 5,10,14-deacetyltaxuyunnanin C]
[1]
  Conversion, based on the conversion of 10-deacetyltaxuyunnanin C: 88%
  pkat (enzyme activity with the substrate): 0.99 pkat

## CC(=O)O[C@@]12CO[C@@H]1C[C@H](OC(=O)OC(C)(C)C)[C@@]1(C)C(=O)[C@H](O)C3=C(C)[C@@H](O)C[C@@](O)([C@@H](OC(=O)c4ccccc4)[C@H]21)C3(C)C [7-BOC-10-DAB III]
[1]
  Conversion, based on the conversion of 10-deacetyltaxuyunnanin C: 2%
  pkat (enzyme activity with the substrate): 2 pkat
  acetylation / acceptance as substrate by the enzyme (in words): not recognized as substrates

## CC[Si](CC)(CC)O[C@H]1C[C@H]2OC[C@@]2(OC(C)=O)[C@H]2[C@H](OC(=O)c3ccccc3)[C@]3(O)C[C@H](O)C(C)=C([C@@H](O)C(=O)[C@]12C)C3(C)C [7-TES-10-DAB III]
[1]
  Conversion, based on the conversion of 10-deacetyltaxuyunnanin C: 0%
  pkat (enzyme activity with the substrate): 0 pkat
  acetylation / acceptance as substrate by the enzyme (in words): not recognized as substrates

## CC(=O)O[C@@]12CO[C@@H]1C[C@H](O)[C@@]1(C)C(=O)[C@H](O)C3=C(C)[C@@H](O)C[C@@](O)([C@@H](OC(=O)c4ccccc4)[C@H]21)C3(C)C [10-Desacetylbaccatin III, 10-deacetylbaccatin III]
[1]
  Conversion, based on the conversion of 10-deacetyltaxuyunnanin C: 80%
  pkat (enzyme activity with the substrate): 0.9 pkat
[1]; listed as 10-DAB
  Conversion, based on the conversion of 10-deacetyltaxuyunnanin C: 85%

## C=C1[C@@H](OC(C)=O)CC[C@@]2(C)C[C@H](O)C3=C(C)C[C@H](OC(C)=O)[C@@H]([C@@H](OC(C)=O)[C@H]12)C3(C)C [10-Desacetyltaxuyunnanin C, 10-deacetyltaxuyunnanin C]
[1]
  Conversion, based on the conversion of 10-deacetyltaxuyunnanin C: 100%
  pkat (enzyme activity with the substrate): 1.12 pkat
Acetyl transferase [2]
  Km: 23 µM

## CC=C(C)C(=O)NC(c1ccccc1)C(O)C(=O)OC1CC2(O)C(OC(=O)c3ccccc3)C3C4(OC(C)=O)COC4CC(O)C3(C)C(=O)C(O)C(=C1C)C2(C)C (centres unmarked) [10-deacetylcephalomannin]
[1]
  acetylation / acceptance as substrate by the enzyme (in words): not acetylated; also recorded: acetylation does not take place

## CC(=O)O[C@@]12CO[C@@H]1C[C@H](O)[C@@]1(C)C(=O)[C@H](O)C3=C(C)[C@@H](OC(=O)[C@H](O)[C@@H](NC(=O)c4ccccc4)c4ccccc4)C[C@@](O)([C@@H](OC(=O)c4ccccc4)[C@H]21)C3(C)C [10-deacetyltaxol]
[1]
  acetylation / acceptance as substrate by the enzyme (in words): not acetylated; also recorded: acetylation does not take place

## CC(=O)OC12COC1CC(O)C1(C)C(=O)C(O)C3=C(C)C(O)CC(O)(C(OC(=O)c4ccccc4)C21)C3(C)C (stereo not drawn) [10-epi-10-DAB III]
[1]
  Conversion, based on the conversion of 10-deacetyltaxuyunnanin C: 0%
  pkat (enzyme activity with the substrate): 0 pkat

## CC(=O)OC12COC1CC(O)C1(C)C(=O)C(O)C3=C(C)C(O)C(O)C(O)(C(OC(=O)c4ccccc4)C21)C3(C)C (centres unmarked) [14-Hydroxy-10-DAB III, 14-hydroxy-10-deacetylbaccatin III]
[1]
  Conversion, based on the conversion of 10-deacetyltaxuyunnanin C: 97%
  pkat (enzyme activity with the substrate): 1.09 pkat

## CC(=O)O[C@@]12CO[C@@H]1C[C@H](O)[C@@]1(CO)C(=O)[C@H](O)C3=C(C)[C@@H](O)C[C@@](O)([C@@H](OC(=O)c4ccccc4)[C@H]21)C3(C)C [19-Hydroxy-10-DAB III, 19-hydroxy-10-DAB III]
[1]
  Conversion, based on the conversion of 10-deacetyltaxuyunnanin C: 38%
  pkat (enzyme activity with the substrate): 0.43 pkat

## CC(=O)SCCNC(=O)CCNC(=O)[C@H](O)C(C)(C)COP(=O)(O)OP(=O)(O)OC[C@H]1O[C@@H](n2cnc3c(N)ncnc32)[C@H](O)[C@@H]1OP(=O)(O)O [acetyl coenzyme A]
Acetyl transferase [3]
  Km: 61 µM
